Legend:
[1] = tested on: BER reconstituted with purified Pol β, FEN1, and LIG I; assay: Secondary gel-based BER assay reconstituted with purified core BER enzymes; assay type: biochemical; settings: 10 μM compound, THF substrate
Method: The secondary screening assay was performed as described below in the “Materials and Methods” section. Lane 1 represents the substrate only. Lane 2 indicates the reaction mixture with 5 nM APE1. Lanes 3 and 4 correspond to the reaction mixture with 5 nM APE1, 10 nM pol β, 10 nM FEN1 and 20 nM LIG I in the absence and presence of dimethylsulfoxide (DMSO). Lanes 5 through 19 correspond to the reaction mixture with 5 nM APE1, 10 nM pol β, 10 nM FEN1 and 20 nM LIG I in the presence of indicated compounds. The experiments were repeated at least three times. A representative gel is illustrated.
The hit compounds were subject to secondary assays to determine their ability to reduce the BER capacity when reconstituted with purified core BER enzymes, as well as their inhibitory effects on individual BER enzymes including pol FEN1 and LIG I. The effect of hit compounds on BER capacity and BER enzymes was examined using a denaturing sequencing gel-based assay. 10 μM hit compounds were incubated with 10 nM pol β, 10 nM FEN1 and 20 nM LIG I in BER reaction buffer containing 50 mM Tris-HCl (pH 7.5), 50 mM KCl, 0.1 mM EDTA, 0.1 mg/ml bovine serum albumin, and 0.01% Nonidet P-40 in the presence of 5 mM Mg^2+ and 2 mM ATP. The compounds were initially preincubated with a BER enzyme at varying concentrations for 1 h with rotation. This was followed by the addition of 25 nM ^32P-labeled substrate containing an abasic site, which was precut with 25 or 50 nM APEI. The reaction mixture (20 μL) was incubated at 37° C. for 30 min, and the reaction was terminated by 50 mM EDTA. Substrates, products, and unrepaired BER intermediates were separated by 15% urea-denaturing sequencing gel and detected by a Pharos FX Plus PhosphorImager (Bio-Rad, Hercules, Calif.).
Among the 26 identified compounds, nine were DNA intercalators or inhibitors of human DNA topoisomerases and were excluded from further studies. Thus, […] FDA approved drugs were selected for further testing. To further confirm the inhibitory effects of the lead compounds on BER, the effects of the compounds on BER reactions reconstituted with purified BER core enzymes were initially determined.

RWPE1 cells [2] = assay: Cell Titer Glo cell viability assay, RWPE1; assay type: cell-based; settings: 10 μM; after 24 h and 48 h; serum free medium with EGF and BPE
Method: FIGS. 4A-4B show cellular toxicity of lead compounds in nonmalignant androgen independent prostate-derived cell lines. (4A) PNT1A cells were plated in a 96-well plate at 1×10^4 cell/well in the presence of FBS or CSS. Cells were allowed to attach overnight and were treated with either vehicle (DMSO) or 10 μM of indicated compound. At 24 and 48 h, cellular viability was compared using the Cell Titer Glo Luminescent Cell Viability kit. (4B) RWPE1 cells were plated in a 96-well plate at 1×10^4 cells/well using the specified serum free media. Cells were allowed to attach overnight and treated with 10 μM of indicated compound.
Cell viability was determined using the Cell Titer Glo Cell Viability Assay (Promega, Madison, Wis.), as recommended by manufacturer. All experiments were performed in quadruplicate.
Next, whether the same concentration of compounds decreases the viability of the AR negative and nonmalignant prostate derived cells, PNT1A and RWPE1, was tested.

RWPE1 cells [3] = assay: RTCA impedance proliferation assay, RWPE1; assay type: cell-based; settings: 10 μM; serum free medium
Method: (6A-6B) PNT1A cells were plated onto xCelligence E-plates at 5×10^4 cells per well in media supplemented with 10% FBS (6A) or CSS (6B). Cells were allowed to attach overnight and treated with vehicle (DMSO) or 10 μM of indicated compounds. Cellular impedance was monitored continuously with 30 min intervals. (6C) RWPE1 cells were plated at 5×10^4 cells per well in serum free medium supplemented with Epidermal Growth Factor (EGF) and Bovine Pituitary Extract ([…]) onto E-plates and treated with 10 μM of indicated compounds as indicated. […] Proliferation assays were done using Roche DP Real Time Cell Analyzer (RTCA), as described by the manufacturer. Background impedance was established after incubating E-plates (Acea Biosciences, San Diego, Calif.) with 50 μL media at room temperature for 30 min and placed in RTCA. Cells were then seeded in 100 μL per well. Cells attached overnight and then treated. During attachment stage and after treatment impedance was measured every 30 min. Impedance is represented by cell index and is calculated as follows: CI=(Zi−Zo)/15Ω where Zi is impedance at an individual time point, and Zo is the background impedance. Average CI was calculated from four wells per treatment at each time point and normalized to the impedance immediately after compound addition.

| SMILES | BER capacity and production of the BER repair product [1] | RWPE1 cell viability (RWPE1 cells [2]) | RWPE1 proliferation (RWPE1 cells [3]) |
| --- | --- | --- | --- |
| C=C1/C(=C\C=C2/CCC[C@]3(C)[C@@H]([C@H](C)/C=C/[C@@H](O)C4CC4)CC[C@@H]23)C[C@@H](O)C[C@@H]1O [calcipotriene] | significantly reduced BER capacity | significantly decreased | slightly inhibited |
| CC(C)(O/N=C(\C(=O)N[C@@H]1C(=O)N2C(C(=O)[O-])=C(C[n+]3ccccc3)CS[C@H]12)c1csc(N)n1)C(=O)O [ceftazidime] | significantly reduced BER capacity |  |  |
| C[C@@H]1[C@H](O)[C@@H](C)/C=C/C=C/CC/C=C/C=C/C=C/C=C/C(O[C@H]2O[C@H](C)[C@@H](O)[C@H](N)[C@@H]2O)CC2O[C@](O)(CC(O)C(O)CCC(O)CC(O)CC(O)CC(=O)O[C@H]1C)CC(O)C2C(=O)O (stereo partly shown) [nystatin] | significantly reduced BER capacity |  |  |
| CC(=O)Oc1cc2c(s1)CCN(C(C(=O)C1CC1)c1ccccc1F)C2 (stereo not shown) [prasugrel] | significantly reduced BER capacity | significantly decreased |  |
